# Source: publication PMC5740381 (Antimicrobial Agents and Chemotherapy, 2017)
# Tests used:
# [1] = test system: genotype 1b Con1 replicon cells; conditions: genotype 1b replicon cells; cited from earlier work
# [2] = test system: HCV genotype 1a replicon cells; assay: Drug-resistant colony selection in replicon cells; format: cell-based, Hepatitis C virus; conditions: 10× EC50, about 3 weeks
# Description: (§1) . After approximately 3 weeks of treatment, the surviving replicon colonies in one plate for each selection condition were stained with crystal violet and counted, whereas approximately 20 to 30 colonies in a replicate plate or most of the colonies, if less than 20 colonies survived the selection, were picked and further expanded for genotyping. The expanded colonies were lysed in CellsDirect lysis buffer (Invitrogen, MA), and the NS3-coding region from each colony was amplified by reverse transcription-PCR and sequenced. For genotype 1a, 1b, 2a, and 5a colonies, the full-length NS3 sequence was determined, whereas for colonies of the chimeric replicon containing the N-terminal region of NS3 from genotype 2b, 3a, 4a, or 6a, the sequence encoding the NS3 N-terminal region was determined. We defined a substitution in a replicon to be an amino acid difference in a sequence from a posttreatment sample relative to the sequence of the corresponding untreated sample. For resistance selection studies, NS3 substitutions detected at the following amino acid positions associated with resistance to the HCV PI class in >2 colonies in each replicon selection are reported: 36, 43, 54, 55, 56, 80, 122, 155, 156, and 168. In addition, substitutions detected at other amino acid positions in the NS3 protease domain in >2 colonies in each replicon selection are also reported.
# (§2) […]. The drug-resistant colonies were fixed and stained with crystal violet, and the number of colonies was determined.
# [3] = test system: HCV genotype 1b replicon cells; assay: Drug-resistant colony selection in replicon cells; format: cell-based, Hepatitis C virus; conditions: 10× EC50, about 3 weeks
# Description: as §1, §2
smiles,measurement,setting,value
"COC(=O)N[C@H](C(=O)N1CCC[C@H]1c1nc2cc([C@H]3CC[C@H](c4cc5nc([C@@H]6CCCN6C(=O)[C@@H](NC(=O)OC)[C@@H](C)OC)[nH]c5cc4F)N3c3cc(F)c(N4CCC(c5ccc(F)cc5)CC4)c(F)c3)c(F)cc2[nH]1)[C@@H](C)OC [Pibrentasvir, reference compound]",EC50,[1],4.3 pM
same,Colony survival,[2],0.0065%
same,Colony survival,[3],0%
same,Colony survival,[3]; listed as pibrentasvir,no genotype 1b replicon cells survived
